Where a SMILES comes first, the peptide text is derived from it. [ ]: non-standard residue; d: D form. dLac(3-vinyl) = C=CC[C@@H](O)C(=O)O; dHica = CC(C)C[C@@H](O)C(=O)O; NMeV = CN[C@H](C(=O)O)C(C)C; NMeA = CN[C@@H](C)C(=O)O; βAla = NCCC(=O)O
Experiments:
[1] = tested on: ^45Ca-labelled fetal radius and ulna, organ culture; assay: Inhibition of ^45Ca release in mouse organ culture (PTH-induced calcium release); assay type: cell-based, ddY mice
Experimental: 15 to 16 days pregnant ddY mice were injected subtaneously with a solution of ^45Ca-labelled calcium chloride to label their bone. After one day, mice were anesthetized with ether, and disinfected in 70% ethanol. Fetuses were obtained from, and transferred to a sterile dish. Under a stereo microscope, after cutting forelegs and peeling off skin thereof, attached muscle was removed from radius and ulna, and cartilage portions existing at the both ends of the two bones were then obtained. During the preparation, the bones were kept moist. Before culturing, a stainless steel membrane was put into a 24-well plate containing 0.5 mL BGJb medium (Gibco, USA), and the obtained bone was then placed onto the membrane. After incubation for 24 hours, bone was transferred to destruxin E-containing medium and further incubated for 72 hours. Herein, parathyroid hormone (PTH) inducing release of calcium was used, and the inhibitory effect of destruxin E on the calcium release by PTH was analyzed. The amounts of ^45Ca remaining in bone and released to medium were measured using 5% TCA, and bone-resorbing activity was calculated as follows.
Bone-resorbing activity=released amount of ^45Ca to medium/(released amount of ^45Ca to medium+amount of ^45Ca remaining in bone)×100

[2] = tested on: osteoclasts; assay: Pit formation assay (bone resorption by osteoclasts on bone fragments); assay type: cell-based, mouse; design: Inhibitory Activity versus pit formation: unit not given here
Experimental: Since most osteoclasts growing on bone surfaces have the ability to absorb bone, leaving pits, whether the osteoclasts prepared in Example 1 have bone resorption ability or was not determined by analyzing the number and volume of pits.
Bone fragments were prepared in a thickness of 1 mm, put in methanol, disinfected under UV light on a clean bench, and then transferred to wells of a 96-well plate, after which 100 μl α-MEM medium (10% FCS) was added. […] After incubation for 1 day, bone fragments and osteoclasts growing on them were observed micoscopically and then stored at 4° C.

[3] = tested on: osteoclasts; assay: Effect on the morphology and survival of osteoclasts; assay type: cell-based, mouse
[4] = tested on: osteoclasts; assay: Actin ring assay; assay type: cell-based, mouse
Experimental: In order to observe the formation and shape of actin rings, which function to support the cytoskeleton structure of osteoclasts, an actin ring assay was performed. After removing culture medium, osteoclasts cultured in the presence or absence of destruxin E were fixed with formalin for 10 mins, washed once with a solution containing Tween 20, and treated with 300 U rhodamine phalloidin (Sigma, USA) dissolved in methanol in a dark room.

Molecule	Inhibitory effect on ^45Ca release, destruxin E compared with eel calcitonin [1]	Inhibitory Activity versus pit formation ([2]; 0.1 μM destruxin B)	Inhibitory Activity versus pit formation ([2]; 0.5 μM destruxin B)	Inhibitory Activity versus pit formation ([2]; 1 μM destruxin B)	Inhibitory Activity versus pit formation ([2]; 5 μM destruxin B)	IC50 ([2]; read-out: 50% inhibition (IC50) of pit formation)	MIC: Minimum Inhibitory Concentration at which survival of all osteoclasts is inhibited [3]	Inhibitory Activity versus actin ring (%) ([4]; 0.1 μM destruxin B)	Inhibitory Activity versus actin ring (%) ([4]; 0.5 μM destruxin B)	Inhibitory Activity versus actin ring (%) ([4]; 1 μM destruxin B)	Inhibitory Activity versus actin ring (%) ([4]; 5 μM destruxin B)	IC50 ([4]; read-out: 50% inhibition (IC50) of actin ring formation)
eel calcitonin	the inhibitory effect of destruxin E is higher than that of eel calcitonin											
CC[C@H](C)[C@@H]1NC(=O)[C@@H]2CCCN2C(=O)[C@@H](CC(C)C)OC(=O)CCNC(=O)[C@H](C)N(C)C(=O)[C@H](C(C)C)N(C)C1=O [Destruxin B] (cyclo([dHica]PI[NMeV][NMeA][βAla]))		25	71	94	100	0.2 µM	10 µM	12%	41%	92%	100%	0.6 µM
C=CC[C@H]1OC(=O)CCNC(=O)[C@H](C)N(C)C(=O)[C@H](C(C)C)N(C)C(=O)[C@H]([C@@H](C)CC)NC(=O)[C@@H]2CCCN2C1=O [Destruxin A] (cyclo([dLac(3-vinyl)]PI[NMeV][NMeA][βAla]))							20 µM					

Source: US20040102365A1, “Pharmaceutical composition for prevention and remedy of osteoporosis” (priority 2003, published 2004)
